Results published in US20230382926A1, “COMPOUNDS AND USES THEREOF” (The University of The West Indies, priority 2022, published 2023).

Assays:
K. pneumoniae = assay: Rescue concentration of substituted phenyl azaindole derivatives; type: cell-based; details: for Rescue concentration, K. pneumoniae Ciprofloxacin (1 μg/mL): Ciprofloxacin fixed at 1 μg/mL; for Rescue concentration, K. pneumoniae Imipenem (1 μg/mL): Imipenem fixed at 1 μg/mL
Protocol: (§1) The antibiotic adjuvant activity of the SPazaBIMs were evaluated in combination with representative antibiotics (representing 13 antibiotic classes) against the 19 pathogens strains listed in Table 3. To assess the adjuvant properties of the SP-azaBIM molecules, a modified checkerboard minimum inhibitory concentration assay was used. A fixed concentration of the respective antibiotic (susceptible breakpoint concentration) was mixed with a twofold dilution series of the test SP-azaBIM (FIG. 1). This was to determine the concentration of SP-azaBIM needed potentiate the antibiotic at a clinically susceptible breakpoint concentration. Antibiotic susceptible breakpoint concentrations for the respective bacteria were determined using Clinical Laboratory Standards Institute (CLSI) criteria M100 ED31.
(§2) In this study, only those antibiotics to which the bacterial was classed as resistant were included in the adjuvant assays. In this assay we recorded the rescue concentration of the SP-BIM for a respective antibiotic. The rescue concentration was defined as the concentration of the adjuvant that reduces the minimum inhibitory concentration (MIC) of an antibiotic to the susceptibility breakpoint.
(§3) Immediately prior to testing, the respective antibiotic and SP-azaBIM was dissolved in sterile deionised water at 20× the required test concentration. Each microtiter well was then inoculated with 180 μl of bacterial inoculum of 10^6 CFU/ml in ca-MHB, and 10 μl each if the antibiotic and SP-azaBIM was added to the plates. These plates were then incubated at 35° C. for 24 h under aerobic conditions. A similar method was followed for the fastidious pathogens except that they were cultured in ca-MHB with 5% sheep blood and 5% CO2.
(§4) Bacterial growth was visually inspected after the incubation period and the rescue concentration of the test SP-azaBIM was determined as the lowest concentration of the compound needed to reduce bacterial growth by 99.99% at the susceptible breakpoint concentration of the antibiotic. For example, CLSI states that Pseudomonas aeruginosa is susceptible to the Imipenem if the MIC is ≤2 μg mL^−1. If the bacteria can tolerate this concentration in vitro, then the bacteria has an intermediate or absolute resistance toward that antibiotic. The goal was to determine the concentration of SP-azaBIM needed to cause P. aeruginosa death at 2 μg mL^−1 of Imipenem therefore restoring susceptibility of the bacteria to toward the antibiotic.
(§5) Phenyl azaindole compounds are also tested for their adjuvant activities and the method is shown in Example 39.

P. aeruginosa = assay: as above; type: cell-based; details: Imipenem fixed at 1 μg/mL
Protocol: as §1, §2, §3
Bacterial growth was visually inspected after the incubation period and the rescue concentration of the test SP-azaBIM was determined as the lowest concentration of the compound needed to reduce bacterial growth by 99.99% at the susceptible breakpoint concentration of the antibiotic. […] If the bacteria can tolerate this concentration in vitro, then the bacteria has an intermediate or absolute resistance toward that antibiotic. […]
as §5

[1] = system: Carbapenem resistant Klebsiella pneumoniae; assay: Broth microdilution minimum inhibitory concentration; type: cell-based; details: compound alone
Protocol: (§6) Antibacterial activity of the synthesized compounds was determined following guidelines established by the Clinical and Laboratory Standards Institute M07-A10 (CLSI 2015), following the broth microdilution method. Briefly, the test articles were dissolved in 100% DMSO, diluted by 2-fold serial titrations in the same vehicle (100% DMSO), for a total of 11 concentrations. A 4 μL aliquot of each dilution was then added to 196 μL of broth medium seeded with the bacterial suspension in wells of a 96 well plate (bacterial count: 2×10^5 to 8×10^5 colony forming units/mL final). The highest test substance concentration was 1028 μg/mL, and the final vehicle concentration was 2 percent. Following incubation, the test plate was visually examined, and each well was scored for growth or complete inhibition of growth. The minimum inhibitory concentration was determined as the lowest concentration were no growth of the bacterial was observed. Each test article was assayed in duplicate.

[2] = system: Vancomycin resistant Enterococcus faecalis; assay: as above; type: cell-based; details: compound alone
Protocol: as §6

[3] = system: Carbapenem resistant Acinetobacter baumannii; assay: as above; type: cell-based; details: compound alone
Protocol: as §6

[4] = system: Multidrug resistant Pseudomonas aeruginosa; assay: as above; type: cell-based; details: compound alone
Protocol: as §6

[5] = system: Methicillin resistant Staphylococcus aureus; assay: as above; type: cell-based; details: compound alone
Protocol: as §6

MRSA = assay: Rescue concentration of substituted phenyl azaindole derivatives; type: cell-based, Staphylococcus aureus; details: Amoxicillin fixed at 2 μg/mL
Protocol: as §1, §2, §3, §4, §5

Structure (SMILES) | MIC [1] [µg/mL] | MIC [2] [µg/mL] | MIC [3] [µg/mL] | MIC [4] [µg/mL] | MIC [5] [µg/mL] | Rescue concentration, K. pneumoniae Ciprofloxacin (1 μg/mL) (K. pneumoniae) [µg/mL] | Rescue concentration, K. pneumoniae Imipenem (1 μg/mL) (K. pneumoniae) [µg/mL] | Rescue concentration, P. aeruginosa Imipenem (1 μg/mL) (P. aeruginosa) [µg/mL] | Rescue concentration, MRSA Amoxicillin (2 μg/mL) (MRSA) [µg/mL]
O=[N+]([O-])c1cccc(C(O)c2c[nH]c3c(Cl)nc(Br)cc23)c1 (stereo not drawn) [3NO2-5Br-7Cl-6aza-OH, (5-bromo-7-chloro-1H-pyrrolo[2,3-c]pyridin-3-yl)(3-nitrophenyl)methanol] | < 1020 | < 1020 | < 1020 | < 1020 | < 1020 | <256 | <256 | <256 | 16
O=[N+]([O-])c1ccc(C(O)c2c[nH]c3c(Cl)nc(Br)cc23)cc1 (stereo not drawn) [4NO2-5Br-7Cl-6aza-OH, (5-bromo-7-chloro-1H-pyrrolo[2,3-c]pyridin-3-yl)(4-nitrophenyl)methanol] | < 1020 | < 1020 | < 1020 | < 1020 | < 1020 | <256 | <256 | <256 | 16
O=[N+]([O-])c1ccc(C(O)c2c[nH]c3cnc(Br)cc23)cc1 (stereo not drawn) [4NO2-5Br-6aza-OH, (5-bromo-1H-pyrrolo[2,3-c]pyridin-3-yl)(4-nitrophenyl)methanol] | < 1020 | < 1020 | < 1020 | < 1020 | < 1020 | <256 | <256 | <256 | 32
OC(c1ccc(Br)cc1)c1c[nH]c2c(Cl)nccc12 (stereo not drawn) [4Br-7Cl-6aza-OH, (4-bromophenyl)(7-chloro-1H-pyrrolo[2,3-c]pyridin-3-yl)methanol] | < 1020 | < 1020 | < 1020 | < 1020 | < 1020 | <256 | <256 | <256 | 2
Oc1ccc(C(c2c[nH]c3cnc(Cl)cc23)c2c[nH]c3cnc(Cl)cc23)cc1 [4OH-Bis 5Cl 6aza, 4-(bis(5-chloro-1H-pyrrolo[2,3-c]pyridin-3-yl)methyl)phenol] | < 1020 | < 1020 | < 1020 | < 1020 | < 1020 | <256 | <256 | <256 | 8
OC(c1ccc(Br)cc1)c1c[nH]c2cnc(Br)cc12 (stereo not drawn) [4Br-5Br-6aza-OH, (5-bromo-1H-pyrrolo[2,3-c]pyridin-3-yl)(4-bromophenyl)methanol] | < 1020 | < 1020 | < 1020 | < 1020 | < 1020 | <256 | <256 | <256 | 4
OC(c1ccc(Br)cc1)c1c[nH]c2cnc(Cl)cc12 (stereo not drawn) [4Br-5Cl-6aza-OH, (4-bromophenyl)(5-chloro-1H-pyrrolo[2,3-c]pyridin-3-yl)methanol] | < 1020 | < 1020 | < 1020 | < 1020 | < 1020 | <256 | <256 | <256 | 0.5
O=[N+]([O-])c1ccc(C(O)c2c[nH]c3c(Cl)nccc23)cc1 (stereo not drawn) [4NO2-7Cl-6aza-OH, (7-chloro-1H-pyrrolo[2,3-c]pyridin-3-yl)(4-nitrophenyl)methanol] | < 1020 | < 1020 | < 1020 | < 1020 | < 1020 | <256 | <256 | <256 | 8
Oc1ccc(C(O)c2c[nH]c3ncc(F)cc23)cc1 (stereo not drawn) [4OH-5Fl-7aza-OH, 4-((5-fluoro-1H-pyrrolo[2,3-b]pyridin-3-yl)(hydroxy)methyl)phenol] | < 1020 | < 1020 | < 1020 | < 1020 | < 1020 | <256 | <256 | 256 | 16

Now from value to compound, other results behind:

MIC [1] [µg/mL] | MIC [2] [µg/mL] | MIC [3] [µg/mL] | MIC [4] [µg/mL] | MIC [5] [µg/mL] | Structure (SMILES) | Rescue concentration, K. pneumoniae Ciprofloxacin (1 μg/mL) (K. pneumoniae) [µg/mL] | Rescue concentration, K. pneumoniae Imipenem (1 μg/mL) (K. pneumoniae) [µg/mL] | Rescue concentration, P. aeruginosa Imipenem (1 μg/mL) (P. aeruginosa) [µg/mL] | Rescue concentration, MRSA Amoxicillin (2 μg/mL) (MRSA) [µg/mL]
< 1020 | < 1020 | < 1020 | < 1020 | < 1020 | O=[N+]([O-])c1cccc(C(O)c2c[nH]c3ncccc23)c1 (stereo not drawn) [Compound 3NO2-7aza-OH, (3-nitrophenyl)(1H-pyrrolo[2,3-b]pyridin-3-yl)methanol] | <256 | <256 | <256 | <256
< 1020 | < 1020 | < 1020 | < 1020 | < 1020 | OC(c1ccc(Br)cc1)c1c[nH]c2cnccc12 (stereo not drawn) [Compound 4Br-6aza-OH, (4-bromophenyl)(1H-pyrrolo[2,3-c]pyridin-3-yl)methanol] | 4 | 8 | 16 | 32
< 1020 | < 1020 | < 1020 | < 1020 | < 1020 | O=[N+]([O-])c1ccc(C(O)c2c[nH]c3cnccc23)cc1 (stereo not drawn) [Compound 4NO2-6aza-OH, (4-nitrophenyl)(1H-pyrrolo[2,3-c]pyridin-3-yl)methanol] | 128 | 128 | <256 | 128
< 1020 | < 1020 | < 1020 | < 1020 | < 1020 | O=Cc1cccc(C(O)c2c[nH]c3cnccc23)c1 (stereo not drawn) [ISO-6aza-OH, 3-(hydroxy(1H-pyrrolo[2,3-c]pyridin-3-yl)methyl)benzaldehyde] | <256 | <256 | <256 | 64
< 1020 | < 1020 | < 1020 | < 1020 | < 1020 | O=[N+]([O-])c1ccc(C(O)c2c[nH]c3ncccc23)cc1 (stereo not drawn) [Compound 4NO2-7aza-OH, (4-nitrophenyl)(1H-pyrrolo[2,3-b]pyridin-3-yl)methanol] | <256 | <256 | <256 | 32
